Laboratory results published in paper PMC11384084 (Journal of Traditional and Complementary Medicine, 2024).
“Also recorded” adds a separate entry of the source. Where two headings read alike, the source gives them in different places.

What was measured:
[1] = Peak plasma levels (Cmax) of compounds and metabolites on day 14 by UHPLC-MS/MS; assay type: in vivo, human; conditions: for Cmax: male, human, plasma, 2 weeks, read-out: UA plasma level, median (Cmax day 14)
Description: The compounds and their metabolites were measured using a UHPLC-MS/MS system on a Hybrid quadrupole-Orbitrap mass spectrometer (Q Exactive, Thermo Scientific, Waltham, MA, USA) hyphenated with a Thermo Scientific Vanquish Flex ultrahigh-pressure liquid chromatography (UHPLC) system via an electrospray ionization source. For the parallel reaction monitoring (PRM) scan, the resolution, automatic gain control (AGC) target, and maximum injection time (IT) were set at 17500, 2e5, and 100 ms, respectively. The NCE values for each metabolite were individually set, and the details are provided in Supplemental Table 1. The All-Ion Fragmentation (AIF) scan consisted of a scan range of m/z 100–750 with an NCE of 10. The resolution, AGC target, and maximum IT for the AIF scan were set at […], and 200 ms, respectively. More details regarding the preparation and calibration are provided in the Supplementary Methods section.

[2] = tested on: healthy men; assay: Safety laboratory values, baseline vs end of two-week study; assay type: in vivo, human
Source text: Safety was compared to evaluate the number, frequency, duration, and relationship of toxicity events to CURC and UA, as defined by the Common Terminology Criteria for Adverse Events (CTCAE) v. […] The secondary outcomes included the measured plasma levels of UA, CURC, and selected metabolites. We also investigated the impact on the microbiome in a paired analysis for changes and the overall theme of imputed bacterial function.
Demographics between groups were compared using Fisher's exact test for categorical variables and Student's t-test for continuous variables. Laboratory safety values were analyzed using a paired t-test for differences, with significance set at p < 0.05. ANOVA was used to compare the plasma levels of UA, CURC, and CURC metabolites. Least significant difference (LSD) was used as the post-hoc analysis test to compare values between groups.
Laboratory analysis was performed at baseline and at the end of the two-week study. We then subtracted the values (week 2: baseline) to obtain the differences for each participant. […] Chronic kidney disease (CKD) is based on glomerulary filtration rate (GFR), and CKD stage 3 starts at a value below 60. […] Bicarbonate can be harmful if large changes occur in either direction, but clinicians are usually concerned about metabolic acidosis.

[3] = tested on: healthy men; assay: Phase 1 clinical trial safety evaluation, adverse events by CTCAE v4.03; assay type: in vivo, human; conditions: for Toxicity Grade (CTCAE v4.0) / Relationship To Study Treatment: per event; for Toxicity Grade (CTCAE v4.0) / Relationship To Study Treatment / Event (adverse event term): 2 weeks oral; for Toxicity Grade (CTCAE v4.0) / Adverse Event (Yes/No) / Event (adverse event term): UA 300 mg/day, CURC 1200 mg/day; for Adverse Event (Yes/No) / Event (adverse event term): per subject; for Adverse Event (Yes/No): 2 weeks oral lipid capsules
Source text: We performed a standard 3 × 3 phase 1 design based on the safety evaluation of UA and CURC tested individually and then in combination (Study Schema in Supplemental Fig. 1). We modified the 3 × 3 design to include any toxicities because we selected the maximum dose due to the reported safety of large doses of these compounds. We enrolled subjects for a 2-week study period and used paired samples for individualized comparisons and pooled results for group comparisons.
We recruited healthy men enrolled in the San Antonio Biomarkers of Risk (SABOR) study, a community-based prostate cancer screening cohort. The San Antonio Biomarkers of Risk (SABOR) study cohort was funded by the 10.13039/100000054National Cancer Institute Early Detection Research Network-sponsored Clinical and Epidemiologic Validation Center since its nascent enrollment in 2000 (IRB# HSC20000030H). A separate IRB was approved for the Phase 1 trial (IRB# HSC20190940H). The participants had no prior diagnosis of prostate cancer at the time of enrollment and had varied prostate cancer risk profiles. We used data from the local UT Health San Antonio Data Safety and Monitoring Board (DSMB).
Safety was compared to evaluate the number, frequency, duration, and relationship of toxicity events to CURC and UA, as defined by the Common Terminology Criteria for Adverse Events (CTCAE) v. 4.03. The secondary outcomes included the measured plasma levels of UA, CURC, and selected metabolites. We also investigated the impact on the microbiome in a paired analysis for changes and the overall theme of imputed bacterial function.

[4] = Human microsomal metabolism of UA alone or with CURC; assay type: in vitro ADME; conditions: UA 4 μM, HLM, NADPH, 37 °C
Description: The respective stock solutions were further diluted using MeOH to prepare calibration curve standards and working solutions. The diluent was prepared by spiking the IS (C-d6 and BA) in 100% MeOH to obtain a concentration of 100 ng/mL. The solutions were stored at −20 °C before use. […] Aliquots of 30 μL were collected at different time points, and the reaction was terminated by adding 120 μL of the diluent. Finally, the collected samples were vigorously vortexed, centrifuged for 10 min at 4 °C and 50 μL of the clear supernatant was transferred to LC-MS vials for analysis. UHPLC–MS analysis was performed using a Thermo Scientific Vanquish UHPLC system coupled with an Orbitrap IQ-X Tribrid mass spectrometer with an electrospray ionization (ESI) interface. […] The H-ESI interface was operated in negative ion mode with interface ion transfer tube temperature 320 °C, vaporizing temperature 250 °C, sheath gas 45 Arb, auxiliary gas 10 Arb, sweep gas 2 Arb, and detector voltage 3.5 kV. […] Data processing was performed using the Thermo Scientific Freestyle software (1.8. SP2 version).

[5] = CURC alone group, 1200 mg/day oral, day 14
[6] = combination group (CurcUA), day 14
[7] = week 2 minus baseline, n = 6 per group
[8] = adverse event Creatinine increased
[9] = Musculoskeletal domain adverse event
[10] = Nervous system domain adverse event

COc1cc(/C=C/C(=O)CC(=O)/C=C/c2ccc(O[C@@H]3O[C@H](C(=O)O)[C@@H](O)[C@H](O)[C@H]3O)c(OC)c2)ccc1O [CURC glucuronide, curcumin glucuronide]
CURC glucuronide plasma level, median [1, 5]: 24.0 ng/mL | CURC glucuronide plasma level, median [1, 6]: 25 ng/mL

COc1cc(/C=C/C(=O)CC(=O)/C=C/c2ccc(O)c(OC)c2)ccc1O [Curcumin, curcumin]
GFR after 2 weeks, individual participant ([2]; baseline GFR 45 (CURC arm participant), 76 (CurcUA participant)): 46 | Creatinine after treatment in subject with event 'Creatinine increased' (Comments) ([2]; individual subjects, baselines 1.10, 1.0, 1.13): Creatine increased from 1.10 to 1.24; also recorded: Creatine increased from 1.0 to 1.21 | Difference in ALT, median (IQR) [2, 7]: −1.0 (−3.25 to 0.0) | Difference in AST, median (IQR) [2, 7]: 2.0 (−2.0 to 3.3) | Difference in Albumin, median (IQR) [2, 7]: 0.05 (−0.05 to 0.2) | Difference in Alkaline Phosphatase, median (IQR) [2, 7]: −2.0 (−5.5 to 9.3) | Difference in Bicarbonate, median (IQR) [2, 7]: −1.5 (−4.3 to 0.0) | Difference in Bilirubin, median (IQR) [2, 7]: −0.1 (−0.3 to 0.0) | Difference in Calcium, median (IQR) [2, 7]: 0.2 (−0.15 to 0.32) | Difference in Chloride, median (IQR) [2, 7]: −0.5 (−1.3 to 0.8) | Difference in Creatinine, median (IQR) [2, 7]: 0.07 (−0.07 to 0.16) | Difference in Glomerular Filtration Rate (GFR), median (IQR) [2, 7]: −5.5 (−12.0 to 4.5) | Difference in Hematocrit, median (IQR) [2, 7]: 0.25 (−1.45 to 2.35) | Difference in Hemoglobin, median (IQR) [2, 7]: 0.20 (−0.30 to 0.55) | Difference in Platelets, median (IQR) [2, 7]: 7.0 (−5 to 31.5) | Difference in Sodium, median (IQR) [2, 7]: 0.0 (−1.5 to 1.0) | Difference in White blood cell (WBC), median (IQR) [2, 7]: 0.15 (−0.43 to 0.68) | CURC parent compound plasma level, median [1, 5]: 0.42 ng/mL | Highest plasma level of CURC [1, 5]: 0.52 ng/mL | CURC plasma level, median [1, 6]: 0.0 ng/mL | Toxicity Grade (CTCAE v4.0) ([3]; adverse event Bloating): 2 | Toxicity Grade (CTCAE v4.0) [3, 8]: 1 | Relationship To Study Treatment [3, 8]: Unlikely | Relationship To Study Treatment ([3]; adverse event Diarrhea): Possible | Adverse Event (Yes/No) [3]: No and Yes | Event (adverse event term) ([3]; adverse event Bloating): Bloating | Event (adverse event term) [3, 8]: Creatinine increased | Event (adverse event term) ([3]; adverse event Diarrhea): Diarrhea | Event (adverse event term) ([3]; adverse event Flatulence): Flatulence

C[C@H]1[C@H](C)CC[C@]2(C(=O)O)CC[C@]3(C)C(=CC[C@@H]4[C@@]5(C)CC[C@H](O)C(C)(C)[C@@H]5CC[C@]43C)[C@H]12 [Ursolic Acid, ursolic acid]
Difference in ALT, median (IQR) [2, 7]: 1.5 (1.0–12.8) | Difference in AST, median (IQR) [2, 7]: 2.0 (−1.3 to 3.3) | Difference in Albumin, median (IQR) [2, 7]: 0.0 (−0.1 to 0.2) | Difference in Alkaline Phosphatase, median (IQR) [2, 7]: 2.5 (−2.5 to 5.0) | Difference in Bicarbonate, median (IQR) [2, 7]: 1.0 (−1.5 to 3.0) | Difference in Bilirubin, median (IQR) [2, 7]: 0.0 (−0.08 to 0.15) | Difference in Calcium, median (IQR) [2, 7]: 0.03 (−0.05 to 0.48) | Difference in Chloride, median (IQR) [2, 7]: −1.0 (−2.75 to 1.75) | Difference in Creatinine, median (IQR) [2, 7]: −0.08 (−0.33 to 0.12) | Difference in Hematocrit, median (IQR) [2, 7]: 1.55 (−0.85 to 2.85) | Difference in Hemoglobin, median (IQR) [2, 7]: 0.20 (−0.33 to 0.58) | Difference in Platelets, median (IQR) [2, 7]: 9.5 (2.5–27) | Difference in Sodium, median (IQR) [2, 7]: 0.5 (−1.5 to 2.25) | Difference in White blood cell (WBC), median (IQR) [2, 7]: 0.20 (−0.23 to 0.85) | UA remaining at 40 min ([4]; UA-only incubations): 47% | UA remaining at 40 min ([4]; ratio 1:4 (UA: CURC)): 73% | Cmax ([1]; UA alone group, UA 300 mg/day oral): 2.7 ng/mL | Cmax ([1]; combination group (CurcUA), UA 300 mg/day + CURC 1200 mg/day oral): 43.8 ng/mL | Increase of UA plasma levels, combination vs UA alone ([1]; median 2.7 to 43.8 ng/mL): 16 fold | Number of low-grade gastrointestinal (GI)-related complaints attributed ([3]; CTCAE v4.03, n): 3 | Relationship To Study Treatment [3]: Unlikely | Toxicity Grade (CTCAE v4.0) [3, 9]: 1 | Toxicity Grade (CTCAE v4.0) [3, 10]: 2 | Adverse Event (Yes/No) [3]: No and Yes | Event (adverse event term) [3, 9]: Joint pain | Event (adverse event term) [3, 10]: Vasovagal Reaction; also recorded: Pre-syncope
